molecular target: T1, SARM1 (50-724) (Homo sapiens, UniProt Q6SZW1); assay: SARM1 (50-724) enzymatic assay (LC-MS/MS); type: biochemical; conditions: Purified SARM1 (50-724) 2 nM, NMN as activator, NAD+ as substrate, 1 h at room temperature, read-out: IC50 (SARM1 inhibitory activity)
T1 construct: Purified SARM1 (50-724) with a final concentration of 2 nM was pre-incubated with a test compound
T1 sequence (Q6SZW1 50-724): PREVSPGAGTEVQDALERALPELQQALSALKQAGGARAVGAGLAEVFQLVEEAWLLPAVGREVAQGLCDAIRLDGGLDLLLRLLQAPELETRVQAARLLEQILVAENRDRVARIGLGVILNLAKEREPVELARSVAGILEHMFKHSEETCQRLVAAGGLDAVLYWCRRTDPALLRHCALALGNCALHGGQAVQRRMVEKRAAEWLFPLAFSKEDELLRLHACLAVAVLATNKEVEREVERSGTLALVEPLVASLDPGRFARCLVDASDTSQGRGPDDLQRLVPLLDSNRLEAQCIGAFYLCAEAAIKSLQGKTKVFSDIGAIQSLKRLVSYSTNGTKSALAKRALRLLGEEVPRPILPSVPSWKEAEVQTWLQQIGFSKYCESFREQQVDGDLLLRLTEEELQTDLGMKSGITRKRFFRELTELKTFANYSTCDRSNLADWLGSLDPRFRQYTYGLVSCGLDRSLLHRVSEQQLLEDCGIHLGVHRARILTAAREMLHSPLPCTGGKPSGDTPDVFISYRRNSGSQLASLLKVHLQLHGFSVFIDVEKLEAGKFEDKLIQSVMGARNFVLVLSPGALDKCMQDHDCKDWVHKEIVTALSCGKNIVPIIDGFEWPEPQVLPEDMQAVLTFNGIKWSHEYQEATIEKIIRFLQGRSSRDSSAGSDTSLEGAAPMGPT
Outline: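 Human SARM1 (50-724), 2 nM, pre-incubated 15 min at room temperature with compound in Dulbecco's PBS. Reaction started with 200 µM NMN (activator) plus […] NAD^+ substrate, run 1 h at room temperature, quenched with 70% acetonitrile. Turnover quantified by LC-MS/MS; IC50 reported.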

Structure (SMILES)	IC50 [nM]
Fc1cc(OC(F)F)cc2nc(-c3nncn3-c3cnccc3C(F)(F)F)[nH]c12 [Compound 293, 5-(difluoromethoxy)-7-fluoro-2-(4-(4-(trifluoromethyl)pyridin-3-yl)-4H-1,2,4-triazol-3-yl)-1H-benzo[d]imidazole]	≤ 100
O=S1(=O)CC[C@@H](OC(F)(F)F)[C@H](n2cnnc2-c2nc3cc(C(F)(F)F)ccc3[nH]2)C1 (single isomer, unassigned) [Compound 288]	> 1000
FC(F)(F)c1ccc2[nH]c(-c3nncn3-c3cnccc3C(F)(F)F)nc2c1 [Compound 225, 5-(Trifluoromethyl)-2-(4-(4-(trifluoromethyl)pyridin-3-yl)-4H-1,2,4-triazol-3-yl)-1H-benzo[d]imidazole]	≤ 100
OCC(F)(F)COc1ccc(OC(F)(F)F)c(-n2cnnc2-c2nc3cc(C(F)(F)F)ccc3[nH]2)n1 [Compound 251, 2,2-difluoro-3-((5-(trifluoromethoxy)-6-(3-(5-(trifluoromethyl)-1H-benzo[d]imidazol-2-yl)-4H-1,2,4-triazol-4-yl)pyridin-2-yl)oxy)propan-1-ol]	≤ 100
Cn1cc(OC(F)(F)F)c(-n2cnnc2-c2nc3c(F)c(C4CC4)ccc3[nH]2)cc1=O [Compound 354, 4-(3-(5-cyclopropyl-4-fluoro-1H-benzo[d]imidazol-2-yl)-4H-1,2,4-triazol-4-yl)-1-methyl-5-(trifluoromethoxy)pyridin-2(1H)-one]	≤ 100
CCn1ccc2[nH]c(-c3nncn3-c3cccc(F)c3Cl)cc2c1=O [Compound 308, 2-(4-(2-chloro-3-fluorophenyl)-4H-1,2,4-triazol-3-yl)-5-ethyl-1,5-dihydro-4H-pyrrolo[3,2-c]pyridin-4-one]	100 to 500
OCCOc1ccc(OC(F)(F)F)c(-n2cnnc2-c2nc3cc(C(F)(F)F)ccc3[nH]2)n1 [Compound 250]	≤ 100
C=Cc1ccc2[nH]c(-c3nncn3-c3cnccc3C(F)(F)F)nc2c1 [Compound 276, 2-(4-(4-(trifluoromethyl)pyridin-3-yl)-4H-1,2,4-triazol-3-yl)-5-vinyl-1H-benzo[d]imidazole]	≤ 100
C[S+]([O-])Cc1nnc(-c2nc3cc(C(F)(F)F)ccc3[nH]2)n1-c1cccc(Cl)c1Cl (single isomer, unassigned) [Compound 146, 2-(4-(2,3-dichlorophenyl)-5-((methylsulfinyl)methyl)-4H-1,2,4-triazol-3-yl)-5-(trifluoromethyl)-1H-benzo[d]imidazole]	≤ 100
CS(=O)(=O)Cc1nnc(-c2nc3cc(C4(F)CC4)cc(F)c3[nH]2)n1-c1cccc(F)c1Cl [Compound 203, 2-(4-(2-chloro-3-fluorophenyl)-5-((methylsulfonyl)methyl)-4H-1,2,4-triazol-3-yl)-7-fluoro-5-(1-fluorocyclopropyl)-1H-benzo[d]imidazole]	≤ 100

The remaining lines, values ahead:

IC50 [nM]	Structure (SMILES)
≤ 100	Fc1cccc(-n2c(CN3CC4(CCO4)C3)nnc2-c2nc3cc(C(F)(F)F)ccc3[nH]2)c1Cl [Compound 398, 6-((4-(2-chloro-3-fluorophenyl)-5-(6-(trifluoromethyl)-1H-benzo[d]imidazol-2-yl)-4H-1,2,4-triazol-3-yl)methyl)-1-oxa-6-azaspiro[3.3]heptane]
100 to 500	O=c1[nH]ccc(-c2cccc(Cl)c2Cl)c1-c1nc2cc(C(F)(F)F)ccc2[nH]1 [Example 35]
≤ 100	O=c1cc(-c2nc3cc(C(F)(F)F)ccc3[nH]2)c(-c2cccc(Cl)c2Cl)cn1CCO [Example 64]
100 to 500	FC(F)(F)c1ccc2[nH]c(-c3cnncc3-c3cccc(Cl)c3Cl)nc2c1 [Example 44]
> 1000	O=C1CN(c2ccccc2)C(c2nc3cc(C(F)(F)F)ccc3[nH]2)CN1 (stereo not shown) [Compound 369, 4-phenyl-5-(5-(trifluoromethyl)-1H-benzo[d]imidazol-2-yl)piperazin-2-one]
≤ 100	Fc1cc(C2(c3nccs3)CC2)cc2nc(-c3nncn3-c3cnccc3C(F)(F)F)[nH]c12 [Compound 422, 2-[1-[7-fluoro-2-[4-[4-(trifluoromethyl)-3-pyridyl]-1,2,4-triazol-3-yl]-1H-benzimidazol-5-yl]cyclopropyl]thiazole]

Reference: patent US20260258064A1 (SIRONAX LTD., priority 2023, published 2026)
